# Patent US20070190188A1, “Controlling Toxicity of Aminoquinoline Compounds” (The University of Mississippi, priority 2005, published 2007)
# Key:
# [1] = system: pooled human liver microsomes; assay: In vitro formation of methemoglobinemic metabolites with pooled human liver microsomes and human erythrocytes; type: cell-based; conditions: for formation of methemoglobenemic metabolites, Control: macrolide alone, no 8-aminoquinoline
# Procedure: (§1) In one aspect of the present invention, an in vitro assay is developed for evaluation of biotransformation reactions leading to generation of methemoglobinemic metabolites of 8-aminoquinolines. This method uses simultaneous incubation of a test compound with the hepatic microsomes or Baculosomes® (microsomes prepared from insect cells infected with recombinant baculovirus containing a cDNA insert for a specific human P450 isozyme and NADPH-P450 reductase) and human erythrocytes followed by determination of methemoglobin formation. This allows the unstable metabolites generated in situ to react with the human erythrocytes.
# CYP 2C9 = molecular target: T1, CYP 2C9 (Homo sapiens, UniProt P11712); assay: Methemoglobinemic metabolite formation with Baculosomes, CYP 2C9; type: cell-based; conditions: mean ± S.D. of four
# T1 construct: purchased; host or cells: insect cells infected with recombinant baculovirus
# T1 sequence (P11712 whole entry): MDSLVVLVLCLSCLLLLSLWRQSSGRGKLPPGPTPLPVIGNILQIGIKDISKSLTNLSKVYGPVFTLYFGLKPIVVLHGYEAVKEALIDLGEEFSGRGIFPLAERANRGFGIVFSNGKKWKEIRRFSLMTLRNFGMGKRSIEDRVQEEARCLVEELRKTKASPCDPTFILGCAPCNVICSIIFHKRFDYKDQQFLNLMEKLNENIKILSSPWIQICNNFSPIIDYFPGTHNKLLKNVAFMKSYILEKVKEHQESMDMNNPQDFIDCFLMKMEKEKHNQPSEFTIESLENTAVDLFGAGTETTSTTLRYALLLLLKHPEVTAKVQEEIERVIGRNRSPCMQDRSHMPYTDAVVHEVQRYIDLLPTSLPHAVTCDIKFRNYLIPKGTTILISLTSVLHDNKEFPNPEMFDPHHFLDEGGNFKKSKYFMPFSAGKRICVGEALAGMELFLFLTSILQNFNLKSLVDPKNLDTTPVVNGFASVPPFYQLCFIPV
# Procedure: (§2) This method uses simultaneous incubation of a test compound with the hepatic microsomes or Baculosomes® (microsomes prepared from insect cells infected with recombinant baculovirus containing a cDNA insert for a specific human P450 isozyme and NADPH-P450 reductase) and human erythrocytes followed by determination of methemoglobin formation. This allows the unstable metabolites generated in situ to react with the human erythrocytes.
# CYP 3A4 = molecular target: T2, CYP 3A4 (Homo sapiens, UniProt P08684); assay: Methemoglobinemic metabolite formation with Baculosomes, CYP 3A4; type: cell-based
# T2 construct: purchased; host or cells: insect cells infected with recombinant baculovirus
# T2 sequence (P08684 2-503 limits assumed): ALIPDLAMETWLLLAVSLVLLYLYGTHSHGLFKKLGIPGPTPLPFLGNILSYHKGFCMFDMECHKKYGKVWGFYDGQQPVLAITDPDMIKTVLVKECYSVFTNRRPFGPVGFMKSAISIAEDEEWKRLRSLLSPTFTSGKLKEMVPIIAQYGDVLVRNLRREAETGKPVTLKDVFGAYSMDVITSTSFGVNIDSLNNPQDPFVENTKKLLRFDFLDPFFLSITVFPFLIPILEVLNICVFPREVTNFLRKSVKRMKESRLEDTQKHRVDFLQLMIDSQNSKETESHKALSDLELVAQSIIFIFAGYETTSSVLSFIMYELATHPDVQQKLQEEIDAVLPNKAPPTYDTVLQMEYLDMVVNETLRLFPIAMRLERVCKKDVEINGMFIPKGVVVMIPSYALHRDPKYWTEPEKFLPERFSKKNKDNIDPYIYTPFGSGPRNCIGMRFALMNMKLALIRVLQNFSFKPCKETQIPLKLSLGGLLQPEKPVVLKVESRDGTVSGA
# Procedure: as §1
# CYP 1A2 = molecular target: T3, CYP 1A2 (Homo sapiens, UniProt P05177); assay: Methemoglobinemic metabolite formation with Baculosomes, CYP 1A2; type: cell-based; conditions: mean ± S.D. of four
# T3 construct: purchased; host or cells: insect cells infected with recombinant baculovirus
# T3 sequence (P05177 2-516 limits assumed): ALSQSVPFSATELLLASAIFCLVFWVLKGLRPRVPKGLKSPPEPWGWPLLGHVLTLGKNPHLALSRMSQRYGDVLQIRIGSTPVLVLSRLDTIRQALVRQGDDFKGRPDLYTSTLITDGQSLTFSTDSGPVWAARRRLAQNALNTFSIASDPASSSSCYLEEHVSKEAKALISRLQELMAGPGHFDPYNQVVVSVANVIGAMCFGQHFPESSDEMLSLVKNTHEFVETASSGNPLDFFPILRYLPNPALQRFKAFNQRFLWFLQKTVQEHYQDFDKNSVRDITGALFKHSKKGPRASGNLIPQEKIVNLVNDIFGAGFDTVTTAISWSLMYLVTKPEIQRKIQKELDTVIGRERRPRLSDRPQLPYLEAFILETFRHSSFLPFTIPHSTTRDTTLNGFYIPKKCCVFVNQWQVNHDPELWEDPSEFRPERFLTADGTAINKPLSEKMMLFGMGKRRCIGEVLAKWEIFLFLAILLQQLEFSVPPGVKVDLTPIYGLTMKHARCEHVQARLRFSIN
# Procedure: as §2
# human erythrocytes = assay: In vitro methemoglobin formation, human erythrocytes, control without microsomes; type: cell-based; conditions: for % methemoglobin formed, Supersomes None: no Baculosomes, mean ± S.D. of four; for % methemoglobin formation, Control: no microsomes, drug 100 μM, Mean ± S.D. of four observations
# Procedure: as §1
# Mouse Liver Microsomes = assay: In vitro formation of methemoglobinemic metabolites with mouse liver microsomes and human erythrocytes; type: cell-based; conditions: for formation of methemoglobenemic metabolites, Azithromycin / formation of methemoglobenemic metabolites, Erythromycin / formation of methemoglobenemic metabolites, Microsomes / formation of methemoglobenemic metabolites, Control: Mouse Liver Microsomes; for formation of methemoglobenemic metabolites, Azithromycin: 8-aminoquinoline with Azithromycin; for formation of methemoglobenemic metabolites, Erythromycin: 8-aminoquinoline with Erythromycin; for formation of methemoglobenemic metabolites, Microsomes: no macrolide; for % methemoglobin formation, Mouse Liver Microsomes: drug 100 μM, microsomes equivalent to 25 pmoles cytochrome P450, Mean ± S.D. of four; for formation of methemoglobenemic metabolites, Control: macrolide alone, no 8-aminoquinoline
# Procedure: as §1
# CYP 2A6 = molecular target: T4, CYP 2A6 (Homo sapiens, UniProt P11509); assay: Methemoglobinemic metabolite formation with Baculosomes, CYP 2A6; type: cell-based; conditions: mean ± S.D. of four
# T4 construct: purchased; host or cells: insect cells infected with recombinant baculovirus
# T4 sequence (P11509 1-494): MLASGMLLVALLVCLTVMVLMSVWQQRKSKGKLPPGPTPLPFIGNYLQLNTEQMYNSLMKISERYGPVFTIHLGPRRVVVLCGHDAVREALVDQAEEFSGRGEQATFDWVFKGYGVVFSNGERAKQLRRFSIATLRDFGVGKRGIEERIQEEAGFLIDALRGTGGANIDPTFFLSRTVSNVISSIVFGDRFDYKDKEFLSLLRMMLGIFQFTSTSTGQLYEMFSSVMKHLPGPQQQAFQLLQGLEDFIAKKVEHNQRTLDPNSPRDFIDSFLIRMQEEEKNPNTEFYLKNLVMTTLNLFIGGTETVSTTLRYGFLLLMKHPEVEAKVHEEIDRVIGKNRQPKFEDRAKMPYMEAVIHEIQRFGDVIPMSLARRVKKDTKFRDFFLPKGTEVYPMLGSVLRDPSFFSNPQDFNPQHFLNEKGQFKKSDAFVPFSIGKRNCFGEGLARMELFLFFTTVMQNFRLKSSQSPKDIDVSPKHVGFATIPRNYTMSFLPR
# Procedure: as §2
# CYP 2D6 = molecular target: T5, CYP 2D6 (Homo sapiens, UniProt P10635); assay: Methemoglobinemic metabolite formation with Baculosomes, CYP 2D6; type: cell-based; conditions: mean ± S.D. of four
# T5 construct: purchased; host or cells: insect cells infected with recombinant baculovirus
# T5 sequence (P10635 whole entry): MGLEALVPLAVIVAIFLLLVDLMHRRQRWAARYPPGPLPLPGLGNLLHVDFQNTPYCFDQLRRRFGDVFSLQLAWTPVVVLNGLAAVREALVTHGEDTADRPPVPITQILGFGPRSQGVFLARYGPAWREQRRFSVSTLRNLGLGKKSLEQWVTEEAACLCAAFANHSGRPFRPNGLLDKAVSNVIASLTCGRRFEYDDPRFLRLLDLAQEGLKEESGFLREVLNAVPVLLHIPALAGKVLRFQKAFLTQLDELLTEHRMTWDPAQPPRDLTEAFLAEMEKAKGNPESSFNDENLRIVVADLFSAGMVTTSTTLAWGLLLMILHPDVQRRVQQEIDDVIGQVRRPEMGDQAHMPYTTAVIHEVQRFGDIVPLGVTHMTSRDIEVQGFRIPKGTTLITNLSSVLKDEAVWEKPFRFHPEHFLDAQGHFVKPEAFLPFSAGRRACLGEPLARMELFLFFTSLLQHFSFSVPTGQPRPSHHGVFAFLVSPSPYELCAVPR
# Procedure: as §2
# CPY 2B6 = molecular target: T6, CPY 2B6 (Homo sapiens, UniProt P20813); assay: Methemoglobinemic metabolite formation with Baculosomes, CYP 2B6; type: cell-based; conditions: mean ± S.D. of four
# T6 construct: purchased; host or cells: insect cells infected with recombinant baculovirus
# T6 sequence (P20813 1-491): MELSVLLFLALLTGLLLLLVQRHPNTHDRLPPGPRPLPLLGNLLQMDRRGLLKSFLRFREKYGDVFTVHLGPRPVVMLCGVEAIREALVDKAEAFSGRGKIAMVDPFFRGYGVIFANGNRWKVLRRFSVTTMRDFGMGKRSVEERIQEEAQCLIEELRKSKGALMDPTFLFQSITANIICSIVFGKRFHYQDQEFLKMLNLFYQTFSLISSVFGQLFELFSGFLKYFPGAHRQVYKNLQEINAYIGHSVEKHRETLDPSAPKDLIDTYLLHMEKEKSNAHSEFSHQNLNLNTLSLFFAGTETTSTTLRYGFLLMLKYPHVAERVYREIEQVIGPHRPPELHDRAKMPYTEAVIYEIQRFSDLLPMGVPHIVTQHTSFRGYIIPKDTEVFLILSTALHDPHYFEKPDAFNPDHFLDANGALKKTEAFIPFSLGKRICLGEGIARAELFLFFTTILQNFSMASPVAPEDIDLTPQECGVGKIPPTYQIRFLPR
# Procedure: as §2
# CYP 2C19 = molecular target: T7, CYP 2C19 (Homo sapiens, UniProt P33261); assay: Methemoglobinemic metabolite formation with Baculosomes, CYP 2C19; type: cell-based; conditions: mean ± S.D. of four
# T7 construct: purchased; host or cells: insect cells infected with recombinant baculovirus
# T7 sequence (P33261 whole entry): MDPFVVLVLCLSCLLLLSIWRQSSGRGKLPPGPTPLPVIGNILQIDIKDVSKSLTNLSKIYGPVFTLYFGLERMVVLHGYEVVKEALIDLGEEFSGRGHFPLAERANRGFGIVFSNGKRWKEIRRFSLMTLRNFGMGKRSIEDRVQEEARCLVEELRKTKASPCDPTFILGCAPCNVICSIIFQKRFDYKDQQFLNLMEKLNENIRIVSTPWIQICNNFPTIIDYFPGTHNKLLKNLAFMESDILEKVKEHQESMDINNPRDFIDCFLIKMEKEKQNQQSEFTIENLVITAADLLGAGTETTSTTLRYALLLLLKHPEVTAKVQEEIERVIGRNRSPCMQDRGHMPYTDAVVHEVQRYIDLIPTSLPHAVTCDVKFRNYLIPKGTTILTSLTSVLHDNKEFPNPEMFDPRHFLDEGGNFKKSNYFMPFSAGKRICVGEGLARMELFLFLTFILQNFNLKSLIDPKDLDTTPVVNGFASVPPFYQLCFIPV
# Procedure: as §2
# CYP 2C8 = molecular target: T8, CYP 2C8 (Homo sapiens, UniProt P10632); assay: Methemoglobinemic metabolite formation with Baculosomes, CYP 2C8; type: cell-based; conditions: mean ± S.D. of four
# T8 construct: purchased; host or cells: insect cells infected with recombinant baculovirus
# T8 sequence (P10632 1-490): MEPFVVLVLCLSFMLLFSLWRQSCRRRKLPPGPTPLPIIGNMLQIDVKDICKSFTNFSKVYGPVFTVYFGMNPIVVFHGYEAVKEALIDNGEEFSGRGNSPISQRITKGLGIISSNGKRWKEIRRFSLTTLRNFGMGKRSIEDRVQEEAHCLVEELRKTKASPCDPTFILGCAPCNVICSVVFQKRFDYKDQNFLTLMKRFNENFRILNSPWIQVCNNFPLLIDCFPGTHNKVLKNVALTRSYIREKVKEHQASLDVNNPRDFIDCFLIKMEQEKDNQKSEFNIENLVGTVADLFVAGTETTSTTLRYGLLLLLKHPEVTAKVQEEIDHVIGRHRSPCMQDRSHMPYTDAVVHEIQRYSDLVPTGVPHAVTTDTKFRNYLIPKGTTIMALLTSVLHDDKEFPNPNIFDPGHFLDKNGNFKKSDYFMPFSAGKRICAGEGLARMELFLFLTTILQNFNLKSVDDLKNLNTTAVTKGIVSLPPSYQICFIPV
# Procedure: as §1
# CYP 2E1 = molecular target: T9, CYP 2E1 (Homo sapiens, UniProt P05181); assay: Methemoglobinemic metabolite formation with Baculosomes, CYP 2E1; type: cell-based; conditions: mean ± S.D. of four
# T9 construct: purchased; host or cells: insect cells infected with recombinant baculovirus
# T9 sequence (P05181 whole entry): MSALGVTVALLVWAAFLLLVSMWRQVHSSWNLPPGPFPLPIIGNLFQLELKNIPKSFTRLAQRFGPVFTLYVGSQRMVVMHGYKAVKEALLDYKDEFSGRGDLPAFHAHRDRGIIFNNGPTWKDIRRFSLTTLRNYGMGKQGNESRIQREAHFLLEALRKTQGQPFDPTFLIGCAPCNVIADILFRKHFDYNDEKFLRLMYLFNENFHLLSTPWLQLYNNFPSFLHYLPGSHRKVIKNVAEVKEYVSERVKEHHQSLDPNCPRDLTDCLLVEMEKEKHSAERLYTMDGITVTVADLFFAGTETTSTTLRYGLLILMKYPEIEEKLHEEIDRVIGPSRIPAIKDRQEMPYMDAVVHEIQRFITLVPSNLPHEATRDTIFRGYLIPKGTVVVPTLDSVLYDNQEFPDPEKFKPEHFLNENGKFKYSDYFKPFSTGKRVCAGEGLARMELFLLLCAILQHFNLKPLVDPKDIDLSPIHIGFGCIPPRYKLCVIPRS
# Procedure: as §2
# Plasmodium berghei = assay: In vivo antimalarial evaluation in Plasmodium berghei-mouse malaria model; conditions: TAO i.p. 50 mg/kg × 3 once daily alone; for (%) Parasitemia: mean in brackets
# Excerpt: One concern with this method of controlling 8-aminoquinoline toxicity is that the inhibition metabolism of the drug may impair its antiparasitic efficacy. […] Thus treatment of the individuals with NPC1161B along with an inhibitor of CYP3A4 should not compromise the therapeutic efficiency of NPC1161B.
structure (smiles),measurement,setting,value
COc1cc(N[C@@H](C)CCCN)c2nccc(C)c2c1Oc1ccc(Cl)c(Cl)c1 [NPC1161A],"% methemoglobin formation, Pooled Human liver Microsomes","[1]; drug 100 μM, microsomes equivalent to 25 pmoles cytochrome P450, Mean ± S.D. of four",12.510 ± 1.890%
same,"formation of methemoglobenemic metabolites, Azithromycin","[1]; pooled human Liver Microsomes, 8-aminoquinoline with Azithromycin",10.595 ± 0.842
same,"formation of methemoglobenemic metabolites, Erythromycin","[1]; pooled human Liver Microsomes, 8-aminoquinoline with Erythromycin",6.720 ± 1.011
same,"formation of methemoglobenemic metabolites, Microsomes","[1]; pooled human Liver Microsomes, no macrolide",12.860 ± 1.994
same,"% methemoglobin formed, CYP 2C9",CYP 2C9,0.070 ± 0.130%
same,"% methemoglobin formed, Cimetidine","CYP 3A4; 3A4 Baculosomes, 8-aminoquinoline 100 μM with Cimetidine 100 μM",11.905 ± 1.420%
same,"% methemoglobin formed, Erythromycin","CYP 3A4; 3A4 Baculosomes, 8-aminoquinoline 100 μM with Erythromycin 100 μM",15.288 ± 2.359%
same,"% methemoglobin formed, Ketoconazole","CYP 3A4; 3A4 Baculosomes, 8-aminoquinoline 100 μM with Ketoconazole 100 μM",19.010 ± 0.870%
same,"% methemoglobin formed, Troleandomycin","CYP 3A4; 3A4 Baculosomes, 8-aminoquinoline 100 μM with Troleandomycin 100 μM",16.743 ± 1.401%
same,"% methemoglobin formed, inhibitor None","CYP 3A4; 3A4 Baculosomes, 8-aminoquinoline 100 μM, no inhibitor",20.925 ± 0.502%
same,"% methemoglobin formed, CYP 3A4","CYP 3A4; Baculosomes, mean ± S.D. of four",15.320 ± 0.504%
same,"methemoglobin toxicity generated by CYP 3A4, comparison among the three 8-aminoquinolines",CYP 3A4; FIG. 5,almost similar methemoglobin toxicity
same,"% methemoglobin formed, CYP 1A2",CYP 1A2,2.060 ± 0.185%
same,"% methemoglobin formed, Supersomes None",human erythrocytes,2.138 ± 0.624%
same,"% methemoglobin formation, Control",human erythrocytes,2.138 ± 0.624%
same,"formation of methemoglobenemic metabolites, Azithromycin",Mouse Liver Microsomes,10.850 ± 2.134
same,"formation of methemoglobenemic metabolites, Erythromycin",Mouse Liver Microsomes,9.375 ± 0.686
same,"formation of methemoglobenemic metabolites, Microsomes",Mouse Liver Microsomes,17.790 ± 1.460
same,"% methemoglobin formation, Mouse Liver Microsomes",Mouse Liver Microsomes,17.790 ± 1.460%
same,"% methemoglobin formed, CYP 2A6",CYP 2A6,2.775 ± 0.175%
same,"% methemoglobin formed, CYP 2D6",CYP 2D6,17.200 ± 1.088%
same,"% methemoglobin formed, CPY 2B6",CPY 2B6,5.465 ± 0.625%
same,"% methemoglobin formed, CYP 2C19",CYP 2C19,1.733 ± 0.327%
same,"% methemoglobin formed, CYP 2C8",CYP 2C8,1.893 ± 0.275%
same,"% methemoglobin formed, CYP 2E1",CYP 2E1,8.703 ± 0.956%
"CC[C@H]1OC(=O)[C@H](C)[C@@H](O[C@H]2C[C@@](C)(OC)[C@@H](O)[C@H](C)O2)[C@H](C)[C@@H](O[C@@H]2O[C@H](C)C[C@H](N(C)C)[C@H]2O)[C@](C)(O)C[C@@H](C)C(=O)[C@H](C)[C@@H](O)[C@]1(C)O [Erythromycin, erythromycin, reference compound]","formation of methemoglobenemic metabolites, Control",[1]; pooled human Liver Microsomes,0
same,"formation of methemoglobenemic metabolites, Control",Mouse Liver Microsomes,6.230 ± 1.009
"CC[C@H]1OC(=O)[C@H](C)[C@@H](O[C@H]2C[C@@](C)(OC)[C@@H](O)[C@H](C)O2)[C@H](C)[C@@H](O[C@@H]2O[C@H](C)C[C@H](N(C)C)[C@H]2O)[C@](C)(O)C[C@@H](C)CN(C)[C@H](C)[C@@H](O)[C@]1(C)O [Azithromycin, reference compound]","formation of methemoglobenemic metabolites, Control",[1]; pooled human Liver Microsomes,0
same,"formation of methemoglobenemic metabolites, Control",Mouse Liver Microsomes,6.598 ± 0.505
"CO[C@H]1C[C@H](O[C@H]2[C@H](C)[C@@H](O[C@@H]3O[C@H](C)C[C@H](N(C)C)[C@H]3OC(C)=O)[C@@H](C)C[C@@]3(CO3)C(=O)[C@H](C)[C@@H](OC(C)=O)[C@@H](C)[C@@H](C)OC(=O)[C@@H]2C)O[C@@H](C)[C@@H]1OC(C)=O [Troleandomycin, troleandomycin, reference compound]",MST,Plasmodium berghei,15 days
same,(%) Parasitemia,Plasmodium berghei; day 7 p.i.,13.3/18.3/25.5/16.5/13.1 (17.3) %
same,(%) Parasitemia,Plasmodium berghei; day 10 p.i.,22.7/34.5/32.0/32.1/24.3 (29.1) %
same,(%) Parasitemia,Plasmodium berghei; day 14 p.i.,31.5/41.5/28.5/49.3/49.3 (40.0) %
same,deaths,Plasmodium berghei; number of deaths/day,5/15
"COc1cc(NC(C)CCCN)c2ncccc2c1 (stereo not shown) [Primaquine, primaquine, reference compound]","% methemoglobin formed, Supersomes None",human erythrocytes,1.465 ± 0.183%
same,"% methemoglobin formation, Control",human erythrocytes,1.465 ± 0.414%
same,"formation of methemoglobenemic metabolites, Azithromycin",Mouse Liver Microsomes,11.800 ± 2.862
same,"formation of methemoglobenemic metabolites, Erythromycin",Mouse Liver Microsomes,23.770 ± 5.826
same,"formation of methemoglobenemic metabolites, Microsomes",Mouse Liver Microsomes,36.660 ± 2.612
same,"% methemoglobin formation, Mouse Liver Microsomes",Mouse Liver Microsomes,36.660 ± 2.612%
